According to patent US5792766A (priority 1996, dated 1998):
Structures can show the parent of a compound that is named as a salt.

Target: GABAa receptor
Assay: GABAa receptor activity: inhibition of 3H-RO15-1788 (3H-Flumazenil) binding to rat cortical tissue
Details: 0.5 nM 3H-RO15-1788, 30 min at 4° C.
Method: The pharmaceutical utility of compounds of this invention are indicated by the following assay for GABAa receptor activity.
The assay is carried out as described in Thomas and Tallman (J. Bio. Chem. 156: 9838-9842, J. Neurosci. 3:433-440, 1983). Rat cortical tissue is dissected and homogenized in 25 volumes (w/v of 0.05M Tris HCl buffer (pH 7.4 at 4° C.). The tissue homogenate is centrifuged in the cold (4° C.) at 20,000×g for 20 minutes. The supernatant is decanted and the pellet is rehomogenized in the same volume of buffer and again centrifuged at 20,000×g. The supernatant is decanted and the pellet is frozen at -20° C. overnight. The pellet is then thawed and rehomogenized in 25 volume (original w/v) of buffer and the procedure is carried out twice. The pellet is finally resuspended in 50 volumes (w/v) of 0.05M Tris HCl buffer (pH 7.4 at […]).
Incubation contain 100 of tissue homogenate, […] of radioligand (0.5 nM ^3 H-RO15-1788 [^3 H-Flumazenil] specific activity 80 Ci/mmol), drug or blocker and buffer to a total volume of […]. Incubstion are carried for 30 min at 4° C. then are rapidly filtered through GFB filters to separate free and bound ligand. Filters are washed twice with fresh 0.05M Tris HCl buffer (pH 7.4 at 4° C.) and counted in a liquid scintillation counter. 1.0 mM diazepam is added to some tubes to determine nonspecific binding. Data are collected in triplicate determinations, averaged and % inhibition of total specific binding is calculated. Total Specific Binding=Total-Nonspecific. In some case, the amounts of unlabeled drugs is varied and total displacement curves of binding are carried. Data are converted to a form for the calculation of Ki and Hill Coefficient (nH).

| Structure (SMILES) | Ki [nM] |
| --- | --- |
| COc1ccc(-c2ncc3n2CN(C(=O)N(C)C)c2ccccc2-3)cc1 [Compound 2, 3-(4-Methoxyphenyl)-5,6-dihydro-6-[(N,N-dimethyl-amino)carbonyl]imidazo[1,5-c]quinazoline hydrochloride] | 4.7 |
| COc1cccc(-c2ncc3n2CN(C(=O)N2CCCCC2)c2ccccc2-3)c1 [Compound 16, 3-(3-Methoxyphenyl)-5,6-dihydro-6-[(1-piperidino)-carbonyl]imidazo[1,5-]quinazoline hydrochloride] | 17 |
| COc1ccc(-c2ncc3n2CN(C(=O)N2CCCCC2)c2ccccc2-3)cc1 [Compound 1, 3-(4-methoxyphenyl)-5,6-dihydro-6-[(1-piperidino)carbonyl]imidazo[1,5-c]quinazoline] | 6 |
| COc1ccc(-c2ncc3n2CN(C(=O)c2ccccc2)c2ccccc2-3)c(F)c1 [Compound 72, 3-(2-Fluoro-4-methoxyphenyl)-5,6-dihydro-6-benzoyl-imidazo[1,5-c]quinazoline] | 9.7 |
| O=C(N1CCCCCC1)N1Cn2c(cnc2-c2ccccc2)-c2ccccc21 [Compound 18, 3-Phenyl-5,6-dihydro-6-[(1-hexamethyleneimino)-carbonyl]imidazo[1,5-c]quinazoline hydrochloride] | 12 |
| COc1ccc(-c2ncc3n2CN(C(=O)N2CCOCC2)c2ccccc2-3)cc1 [Compound 3, 3-(4-Methoxyphenyl)-5,6-dihydro-6-[(1-morpholino)-carbonyl]imidazo[1,5-c]quinazoline hydrochloride] | 2.7 |
| COc1ccc(-c2ncc3n2CN(C(C)=O)c2ccccc2-3)cc1 [Compound 49, 3-(4-methoxyphenyl)-5,6-dihydro-6-acetylimidazo[1,5-c]-quinazoline] | 101 |
| CCn1c(=O)n2c(-c3ccccc3F)ncc2c2ccccc21 [Compound 76, 3-(2-Fluorophenyl)-5,6-dihydro-5-oxo-6-ethyl-imidazo[1,5-c]quinazoline] | 124 |
| COc1ccc(-c2ncc3n2CN(C(=O)c2ccccc2)c2ccccc2-3)cc1 [Compound 53, 3-(4-Methoxyphenyl)-5,6-dihydro-6-benzoylimidazo-[1,5-c]quinazoline] | 7.8 |
